Patent publication US20080234273A1, “Heteroaryl Benzamide Derivatives for Use as Glk Activators in the Treatment of Diabetes” (priority 2005, published 2008)

Biological target: T1, recombinant human pancreatic GLK (Homo sapiens, UniProt P35557)
T1 sequence (P35557 1-465): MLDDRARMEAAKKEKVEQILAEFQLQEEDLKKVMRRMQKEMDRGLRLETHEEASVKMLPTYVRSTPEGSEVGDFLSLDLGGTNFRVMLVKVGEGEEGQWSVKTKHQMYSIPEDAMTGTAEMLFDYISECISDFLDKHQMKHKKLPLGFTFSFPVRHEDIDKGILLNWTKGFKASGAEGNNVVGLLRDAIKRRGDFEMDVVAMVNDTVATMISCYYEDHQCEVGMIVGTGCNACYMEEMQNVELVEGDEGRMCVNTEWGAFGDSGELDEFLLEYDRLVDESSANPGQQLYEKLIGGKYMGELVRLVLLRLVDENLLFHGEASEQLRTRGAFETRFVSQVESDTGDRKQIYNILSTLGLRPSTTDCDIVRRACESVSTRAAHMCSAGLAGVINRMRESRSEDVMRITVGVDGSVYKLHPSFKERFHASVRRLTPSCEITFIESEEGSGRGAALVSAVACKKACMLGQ
Experiment: biochemical

For `C[C@@H](COC(F)F)Oc1cc(Oc2ccc(C(=O)N3CCC3)cc2Cl)cc(C(=O)Nc2ccn(C)n2)c1` [Example 1, 3-{[4-(Azetidin-1-ylcarbonyl)-2-chlorophenyl]oxy}-5-({(1S)-2-[(difluoromethyl)oxy]-1-methylethyvl}oxy)-N-(1-methyl-1H-pyrazol-3-yl)benzamide], which EC50 is on record?
The EC50 was 40 nM.
